This is an account of results in patent publication US7749955B2, “Separation of polypeptides comprising a racemized amino acid” (Novo Nordisk A/S, priority 2003, dated 2010).

The data set in a line: isoelectric pH of the peptide (isoelectric precipitation). Type of data set: physicochemical. To be noted: pH at which the peptide was precipitated after chromatography. The text has this:
Arg^34GLP-1(7-37) was expressed in yeast (S. cerevisiae) by conventional recombinant technology as described elsewhere (WO 98/08871). Arg^34GLP-1(7-37) in the fermentation broth was then purified by conventional reversed phase chromatography and subsequently precipitated at the isoelectric pH of the peptide, i.e. at pH 5.4. The precipitate was isolated by centrifugation. Following another RP-LC purification step and isoelectric precipitation, the Arg^34GLP-1(7-37) peptide was acylated as decribed in WO 00/55119 to give the GLP-1 derivative Arg^34Lys^26N^ε(γ-Glu(N^α-hexadecanoyl))GLP-1(7-37).
L17K, K30R-GLP2(1-33) was expressed in yeast (S. cerevisiae) by conventional recombinant technology in a similar manner as described in WO 98/08871 for GLP-1 peptides. L17K, K30R-GLP2(1-33) in the fermentation broth was then purified by conventional aniaon exchange and reversed phase chromatography and subsequently precipitated at the isoelectric pH of the peptide, i.e. at pH 4. The precipitate was isolated by centrifugation. D-His-L17K, K30R-GLP2(1-33) was prepared by solid phase synthesis.

Take Arg^34GLP-1(7-37): the “isoelectric pH of the peptide” value amounted to 5.4 pH.

Turning to “L17K, K30R-GLP2(1-33) (HADGSFSDEMNTILDNKAARDFINWLIQTRITD; Glucagon-like peptide 2; UniProt P01275 146-178, looked up, variant L17K K30R) [GLP-2 analogue expressed in yeast]”, the “isoelectric pH of the peptide” value amounted to 4 pH.
